Data: patent publication US20080119530A1, “Method for treatment and prevention of ultraviolet light induced skin pathologies” (priority 2006, published 2008)
Marks after values point to notes of the source that are not given here.

Tests used:
mice = experiment: Skin-fold thickness as a measure of UV-induced edema; assay type: in vivo, mouse
Excerpt: (§1) Adult female CD-1 mice were maintained in our animal facility and provided with Purina lab chow (Nestlé Purina PetCare, St. Louis, Mo.) and water ad libitum. The dorsal skin was clipped one day before treatment and shaved with a Remington Microscreen shaver (Wahl, Sterling, II) on the day of treatment. […] UVB TL 40W/12 RS bulbs (Philips, Somerset, N.J.) were used that emitted approximately 30% UV-A, 70% UV-B and <1% UV-C, with a total output of 470 μW/cm^2, as measured with radiometric photodetector probes (Newport, Irvine, Calif.). Skin-fold thickness was measured using calipers to lightly pinch the dorsal skin. All animal procedures were approved by our Institutional Animal Care and Use Committee.

skin = experiment: Affymetrix microarray analysis of gene expression in mouse skin; assay type: in vivo
Excerpt: as §1
Microarray Analysis. Flash frozen skin was ground to a powder using a mortar and pestle and RNA extracted using a PowerGen 700 tissue homogenizer (Fisher, Hampton, N.H.) in TRIzol reagent (Invitrogen, Carlsbad, Calif.) according to the manufacturer's protocol. Total RNA was further purified using RNeasy Midi Columns according to the manufacturer's protocol (Qiagen, Valencia, Calif.). The quality of the RNA was assessed using an RNA 6000 Pico Assay (Aligent, Palo Alto, Calif.) with a Bioanalyzer (Agilent, Palo Alto, Calif.). Mouse MOE430A gene chips were purchased from Affymetrix (Santa Clara, Calif.). Five micrograms of total RNA from each sample was reverse transcribed using Superscript II (Invitrogen, Carlsbad, Calif.). In vitro transcription to generate biotinylated cRNA was performed using the Bioarray High Yield RNA Transcript Labeling kit (Enzo Diagnostics, Farmingdale, N.Y.). Fifteen micrograms of fragmented cRNA was hybridized for 16 h to mouse MOE430A chips at 45° C. using the Affymetrix 640 hybridization oven, stained, and scanned using the Agilent scanner according to standard Affymetrix protocols. Signal intensities from the Affymetrix “.CEL” files were derived using GeneChip Operating Software v1.2 (Affymetrix, Santa Clara, Calif.), multiplicative model-based expression index (dChip software)^19 and robust multi-array average^20. The data discussed in this publication have been deposited in NCBIs Gene Expression Omnibus (GEO) and are accessible through GEO Series accession number GSE4066. Methods employed to determine significant changes in gene expression from the derived signal intensities were Rank Products (RP)21, Significance Analysis of Microarrays (SAM)^22, Analysis of Variance (ANOVA), Student's t-test, and fold-change. […] Hierarchical clustering of gene expression was performed with dChip software. […] Significant clustering was also found among samples 6 h after UV and among samples 24 h after UV. Furthermore, significant clustering was found among samples treated with DMSO and among those treated with AG825. Scatter plots were generated using GeneChip Operating Software. Self-Organizing Maps were generated using GeneCluster 2.0 software^23. Grouping of genes into biological processes was performed using NetAffx Analysis Center and literature searches. Genes were mapped into biological networks with Pathways Analysis software (Ingenuity Systems, Mountain View, Calif.). Promoter Analysis and Interaction Network Toolset v3.3 (PAINT) was used to scan sequences up to 2000 base pair upstream of genes with altered expression to search for transcription factor binding sequences or transcriptional response elements (TRE) using a 0.95 core similarity threshold^24.
The influence of Erbb2 on gene expression following UV exposure was assessed using microarray analysis. […] Mice were exposed to UV twice because previous results indicated the influence of Erbb receptors on the response of the skin to UV increases with multiple exposures (22). […] In two randomly selected vehicle-treated and sham-irradiated mice, 8 genes out of approximately 13,000 detected (<0.1%) were expressed with more than a 5-fold difference between them. […]

[1] = Adhesion and Migration, 6 h post-UV
[2] = Adhesion and Migration, 24 h post-UV
[3] = Cell Communication, 6 h post-UV
[4] = Cell Communication, 24 h post-UV
[5] = Pigment Biosynthesis, 6 h post-UV
[6] = Pigment Biosynthesis, 24 h post-UV

SMILES: COc1cc(/C=C(\C#N)C(N)=O)cc(CSc2nc3ccccc3s2)c1O [AG825]
- suppression of UV-induced edema (skin-fold thickness) (mice; 4 d after UV exposure): 33%
- suppression of UV-induced edema (skin-fold thickness) (mice; 5 d after UV exposure): 37%
- suppression of UV-induced edema (skin-fold thickness) (mice; 6 d after UV exposure): 64%
- number of genes with altered expression (skin; 6 h after UV): 218
- share of the altered genes with increased expression (skin; 6 h after UV): 61%
- number of genes with altered expression (skin; 24 h after UV): 127
- share of the altered genes with increased expression (skin; 24 h after UV): 54%
- fold increase in Mmp9 expression (skin; 24 h after UV exposure, Affymetrix data): 2 fold
- Thbs1 expression vs vehicle-treated mice (skin; 24 h post-UV, Affymetrix probe): similar
- Total number of genes changed in AG825-treated samples (skin; Adhesion and Migration): 47
- percentage of the total number of genes altered by Erbb2 (skin; Adhesion and Migration): (13%)
- Number of genes decreased (↓) in AG825-treated samples when compared to the vehicle alone (skin; [1]): 13
- Number of genes increased (↑) in AG825-treated samples when compared to the vehicle alone (skin; [1]): 14
- Number of genes decreased (↓) in AG825-treated samples when compared to the vehicle alone (skin; [2]): 14
- Number of genes increased (↑) in AG825-treated samples when compared to the vehicle alone (skin; [2]): 4
- Number of genes decreased (↓) in AG825-treated samples when compared to the vehicle alone (skin; Adhesion and Migration, Sham): 0
- Number of genes increased (↑) in AG825-treated samples when compared to the vehicle alone (skin; Adhesion and Migration, Sham): 7
- Total number of genes changed in AG825-treated samples (skin; Apoptosis): 25
- percentage of the total number of genes altered by Erbb2 (skin; Apoptosis): (7%)
- Number of genes decreased (↓) in AG825-treated samples when compared to the vehicle alone (skin; Apoptosis, 6 h post-UV): 6
- Number of genes increased (↑) in AG825-treated samples when compared to the vehicle alone (skin; Apoptosis, 6 h post-UV): 5
- Number of genes decreased (↓) in AG825-treated samples when compared to the vehicle alone (skin; Apoptosis, 24 h post-UV): 4
- Number of genes increased (↑) in AG825-treated samples when compared to the vehicle alone (skin; Apoptosis, 24 h post-UV): 6
- Number of genes decreased (↓) in AG825-treated samples when compared to the vehicle alone (skin; Apoptosis, Sham): 2
- Number of genes increased (↑) in AG825-treated samples when compared to the vehicle alone (skin; Apoptosis, Sham): 2
- Total number of genes changed in AG825-treated samples (skin; Cancer): 55
- percentage of the total number of genes altered by Erbb2 (skin; Cancer): (15%)
- Number of genes decreased (↓) in AG825-treated samples when compared to the vehicle alone (skin; Cancer, 6 h post-UV): 12
- Number of genes increased (↑) in AG825-treated samples when compared to the vehicle alone (skin; Cancer, 6 h post-UV): 25
- Number of genes decreased (↓) in AG825-treated samples when compared to the vehicle alone (skin; Cancer, 24 h post-UV): 7
- Number of genes increased (↑) in AG825-treated samples when compared to the vehicle alone (skin; Cancer, 24 h post-UV): 8
- Number of genes decreased (↓) in AG825-treated samples when compared to the vehicle alone (skin; Cancer, Sham): 3
- Number of genes increased (↑) in AG825-treated samples when compared to the vehicle alone (skin; Cancer, Sham): 5
- Total number of genes changed in AG825-treated samples (skin; Cell Communication): 65
- percentage of the total number of genes altered by Erbb2 (skin; Cell Communication): (18%)
- Number of genes decreased (↓) in AG825-treated samples when compared to the vehicle alone (skin; [3]): 18
- Number of genes increased (↑) in AG825-treated samples when compared to the vehicle alone (skin; [3]): 18
- Number of genes decreased (↓) in AG825-treated samples when compared to the vehicle alone (skin; [4]): 20
- Number of genes increased (↑) in AG825-treated samples when compared to the vehicle alone (skin; [4]): 5
- Number of genes decreased (↓) in AG825-treated samples when compared to the vehicle alone (skin; Cell Communication, Sham): 1
- Number of genes increased (↑) in AG825-treated samples when compared to the vehicle alone (skin; Cell Communication, Sham): 6
- Total number of genes changed in AG825-treated samples (skin; Development): 55
- percentage of the total number of genes altered by Erbb2 (skin; Development): (15%)
- Number of genes decreased (↓) in AG825-treated samples when compared to the vehicle alone (skin; Development, 6 h post-UV): 8
- Number of genes increased (↑) in AG825-treated samples when compared to the vehicle alone (skin; Development, 6 h post-UV): 26
- Number of genes decreased (↓) in AG825-treated samples when compared to the vehicle alone (skin; Development, 24 h post-UV): 12
- Number of genes increased (↑) in AG825-treated samples when compared to the vehicle alone (skin; Development, 24 h post-UV): 4
- Number of genes decreased (↓) in AG825-treated samples when compared to the vehicle alone (skin; Development, Sham): 2
- Number of genes increased (↑) in AG825-treated samples when compared to the vehicle alone (skin; Development, Sham): 6
- Total number of genes changed in AG825-treated samples (skin; Immune Response): 65
- percentage of the total number of genes altered by Erbb2 (skin; Immune Response): (18%)
- Number of genes decreased (↓) in AG825-treated samples when compared to the vehicle alone (skin; Immune Response, 6 h post-UV): 42
- Number of genes increased (↑) in AG825-treated samples when compared to the vehicle alone (skin; Immune Response, 6 h post-UV): 3
- Number of genes decreased (↓) in AG825-treated samples when compared to the vehicle alone (skin; Immune Response, 24 h post-UV): 14
- Number of genes increased (↑) in AG825-treated samples when compared to the vehicle alone (skin; Immune Response, 24 h post-UV): 4
- Number of genes decreased (↓) in AG825-treated samples when compared to the vehicle alone (skin; Immune Response, Sham): 0
- Number of genes increased (↑) in AG825-treated samples when compared to the vehicle alone (skin; Immune Response, Sham): 8
- Total number of genes changed in AG825-treated samples (skin; Metabolism): 158
- Number of genes decreased (↓) in AG825-treated samples when compared to the vehicle alone (skin; Metabolism, 6 h post-UV): 23
- Number of genes increased (↑) in AG825-treated samples when compared to the vehicle alone (skin; Metabolism, 6 h post-UV): 63
- Number of genes decreased (↓) in AG825-treated samples when compared to the vehicle alone (skin; Metabolism, 24 h post-UV): 24
- Number of genes increased (↑) in AG825-treated samples when compared to the vehicle alone (skin; Metabolism, 24 h post-UV): 43
- Number of genes decreased (↓) in AG825-treated samples when compared to the vehicle alone (skin; Metabolism, Sham): 10
- Number of genes increased (↑) in AG825-treated samples when compared to the vehicle alone (skin; Metabolism, Sham): 9
- Total number of genes changed in AG825-treated samples (skin; Pigment Biosynthesis): 6
- percentage of the total number of genes altered by Erbb2 (skin; Pigment Biosynthesis): (2%)
- Number of genes decreased (↓) in AG825-treated samples when compared to the vehicle alone (skin; [5]): 0
- Number of genes increased (↑) in AG825-treated samples when compared to the vehicle alone (skin; [5]): 5
- Number of genes decreased (↓) in AG825-treated samples when compared to the vehicle alone (skin; [6]): 0
- Number of genes increased (↑) in AG825-treated samples when compared to the vehicle alone (skin; [6]): 1
- Number of genes decreased (↓) in AG825-treated samples when compared to the vehicle alone (skin; Pigment Biosynthesis, Sham): 3
- Number of genes increased (↑) in AG825-treated samples when compared to the vehicle alone (skin; Pigment Biosynthesis, Sham): 0
- Total number of genes changed in AG825-treated samples (skin; Proliferation): 36
- percentage of the total number of genes altered by Erbb2 (skin; Proliferation): (10%)^c
- Number of genes decreased (↓) in AG825-treated samples when compared to the vehicle alone (skin; Proliferation, 6 h post-UV): 6
- Number of genes increased (↑) in AG825-treated samples when compared to the vehicle alone (skin; Proliferation, 6 h post-UV): 21
- Number of genes decreased (↓) in AG825-treated samples when compared to the vehicle alone (skin; Proliferation, 24 h post-UV): 3
- Number of genes increased (↑) in AG825-treated samples when compared to the vehicle alone (skin; Proliferation, 24 h post-UV): 6
- Number of genes decreased (↓) in AG825-treated samples when compared to the vehicle alone (skin; Proliferation, Sham): 3^b
- Number of genes increased (↑) in AG825-treated samples when compared to the vehicle alone (skin; Proliferation, Sham): 2
- Total number of genes changed in AG825-treated samples (skin; Total Genes): 361
- Number of genes decreased (↓) in AG825-treated samples when compared to the vehicle alone (skin; Total Genes, 6 h post-UV): 85
- Number of genes increased (↑) in AG825-treated samples when compared to the vehicle alone (skin; Total Genes, 6 h post-UV): 133
- Number of genes decreased (↓) in AG825-treated samples when compared to the vehicle alone (skin; Total Genes, 24 h post-UV): 59
- Number of genes increased (↑) in AG825-treated samples when compared to the vehicle alone (skin; Total Genes, 24 h post-UV): 68
- Number of genes decreased (↓) in AG825-treated samples when compared to the vehicle alone (skin; Total Genes, Sham): 14
- Number of genes increased (↑) in AG825-treated samples when compared to the vehicle alone (skin; Total Genes, Sham): 25
- expression of cell cycle regulatory genes such as Ccna2, Ccnb1 and Ccnb2 (skin; after UV): lesser responsiveness to UV
- share of the altered genes with increased expression (skin; all 361 genes): 61%
- expression of proinflammatory chemokines such as Cxcl2 and Cd44 compared to vehicle-treated skin (skin; by 24 h after UV exposure): lower
- Il1 b expression: fold greater increase after UV in vehicle-treated compared to AG825-treated samples (skin; microarray): 16 fold
- expression of the anti-apoptotic genes Ghr and Ptgs2 (skin; mouse, in vivo): suppressed
- fold higher Thbs1 expression compared to corresponding control (skin; sham-irradiated skin, Affymetrix probe): 2 fold
- number of genes with altered expression (skin; without UV irradiation): 39
- share of the altered genes with increased expression (skin; without UV irradiation): 64%
